Measurements published in publication PMC4163382, “Symbiotic Plant Peptides Eliminate Candida albicans Both In Vitro and in an Epithelial Infection Model and Inhibit the Proliferation of Immortalized Human Cells” (BioMed Research International, 2014).
Peptide text beside a SMILES is read from it.

Tests used:
[1] = system: PK E6/E7 vaginal epithelial cells infected with C. albicans WO-1; test: Vaginal epithelial cell - C. albicans coculture (RTCA); format: cell-based, human; settings: PK E6/E7 + C. albicans WO-1, MOI of 5, 3 hours coculture then peptide 3 hours in PBgluc at both 25 and 50 μg/mL, RTCA at 40 hours
Procedure: PK E6/E7 cells were seeded in 96-well E-plates as described above for RTCA. On the next day, an overnight culture of C. albicans WO-1 was diluted to OD = 1 and let to grow until OD = 1.5–2. The fungal cell suspension was diluted in antibiotic/antimycotic-free CKM and was added to the human cells with a multiplicity of infection (MOI) of 5. After 3 hours of coculture at 37°C, CKM medium was replaced with NCR peptides in PBgluc. After 3 hours of incubation, peptides were removed and 200 μL of fresh antibiotic/antimycotic-free CKM was added. Subsequent measurements were performed as described above.
(§1) MTT assays and impedance measurements were performed in at least four technical parallels and two biological replicates; all the data are presented as mean ± standard deviation. Significance was calculated with Newman-Keuls post hoc test using the GraphPad Prism version 5 for Windows and a probability (P) value of less than 0.05 was considered significant.

[2] = system: C. albicans WO-1 cells; test: Cell permeability assay (calcein release); format: cell-based, Candida albicans; settings: calcein-loaded C. albicans WO-1, 10 mM potassium phosphate buffer pH 7.0, peptide 50 μg/mL, fluorescence 485/530 nm
Procedure: Cell permeability was monitored by the release of the intracellularly accumulated dye calcein. Overnight C. albicans WO-1 cells were washed twice with and resuspended in 10 mM potassium phosphate buffer (pH = 7.0) at a concentration of 10^7 cells mL^−1. Cells were loaded with acetomethoxy-calcein at a final concentration of 5 μM for 2 hours at room temperature. Cells were washed three times to remove the extracellular dye and then 100 μL of the suspension was transferred to FIA black 96-well plates. NCR peptides were then added at a concentration of 50 mg/L, and the release of calcein (formed by the cells' esterases) was measured by its fluorescence in a microtiter plate reader (FLUOstar OPTIMA) at excitation and emission wavelengths of 485 nm and 530 nm, respectively. Calcein efflux was calculated as previously reported.

[3] = system: PK E6/E7 vaginal epithelial cells; test: MTT assay, cytotoxicity on human epithelial cells; format: cell-based; settings: peptide in PBgluc 3 hours at 37°C, 24 hours regeneration in CKM, MTT 4 hours, 560 nm
Procedure: The immortalized human vaginal epithelial cell line PK E6/E7 [15] was cultured in serum-free CKM supplemented with 0.005 μg/mL recombinant epidermal growth factor, 50 μg/mL bovine pituitary extract, L-glutamine, and antibiotic/antimycotic solution (Life Technologies) in a CO2 thermostat at 37°C [16]. Cells at 60–70% confluence were used in subsequent experiments.
MTT Assay. PK E6/E7 vaginal epithelial cells were seeded in the wells of a 96-well plate at a density of 1 × 10^4 cells per well in a final volume of 100 μL. CKM was then aspirated and 100 μL of the appropriate peptide diluted in PBgluc was added. After 3 hours of incubation at 37°C, the peptide solution was removed, and the cells were let to regenerate in CKM for 24 hours. Then 5 mg/mL 3-[4,5-dimethylthiazol-2-yl]-2,5-diphenyltetrazolium bromide (MTT) was added to each well and the plate was placed to 37°C for 4 hours. The amount of formazan formed by the activity of the mitochondrial succinate dehydrogenase of living cells was measured by using a microtiter plate reader (FLUOstar OPTIMA) at the wavelength of 560 nm.
10 μg/mL of primycin, a macrolide lactone antibiotic complex that rapidly kills PK cells, was used as a control for cytotoxicity in both assays.
as §1

[4] = system: C. albicans strains WO-1 and Sc 5314; test: Microdilution antifungal assay, summary for C. albicans; format: cell-based, Candida albicans; settings: strains WO-1 and Sc 5314, LSM medium, microdilution plate assay
Procedure: (§2) The antifungal activity of the NCR peptides against C. albicans strains and other Candida species was determined in vitro using 96-well flat bottom microtiter plates (Sarstedt). Fifty microliters of dilutions from each peptide (final concentrations in the assays ranged from 2.5 to 100 μg/mL) was added to 50 μL of 10^4 cells mL^−1 and 10^5 cells mL^−1 in LSM. The plates were incubated at 30°C and the peptide concentrations that prevented the germination of yeast cells were determined by microscopic analysis and measurement of absorbance at 600 nm with a microtiter plate reader (FLUOstar OPTIMA; BMG Labtech) after 24 and 48 hours. Minimal inhibitory concentration (MIC) was determined as the lowest concentration of the peptide at which there was no visible and measurable growth after 24 hours of incubation. To determine whether the antifungal effect was fungistatic or fungicidal, 10 μL from each treatment was dropped onto solid YPD plate after 3 and 24 hours. Plates were incubated at 30°C for 48 hours and developing colonies were observed. Minimal fungicidal concentration (MFC) was defined where no fungal growth could be observed.

[5] = system: C. albicans WO-1; format: cell-based, Candida albicans; settings: 10 μL dropped onto solid YPD, 30°C for 48 hours, mean (±spread); for Minimal fungicidal concentration, 3 h: C. albicans WO-1, 3 hours of treatment; for Minimal fungicidal concentration, 24 h: C. albicans WO-1, 24 hours of treatment
Procedure: as §2

[6] = system: C. albicans strain WO-1; format: cell-based, Candida albicans; settings: C. albicans WO-1, LSM medium, 30°C, 24 hours of treatment, peptide 2.5 to 100 μg/mL, microscopy and absorbance at 600 nm; mean (±spread)
Procedure: (§3) The C. albicans strains WO-1 and Sc5314 were maintained on YPD medium (1% (w/v) yeast extract, 2% (w/v) peptone, 2% (w/v) dextrose, 2% (w/v) agar; Beckton, Dickinson and Company). Hyphal growth was induced in complete keratinocyte medium (CKM; Life Technologies) without serum. The effect of the NCR peptides on free-living fungi was investigated either in PBgluc buffer (1 mM KH2PO4, 3 mM Na2HPO4 × 7H2O, 5% glucose, pH = 7.0) or in low-salt fungal medium (LSM) composed of 5 mM K2HPO4, 100 μM MgSO4, 10 μM FeCl, 0.2 μM CoCl2, 0.2 μM CuSO4, 4 μM Na2MoO4, 1 μM H3BO3, 0.2 μM KI, 1 μM ZnSO4, 0.2 μM MnSO4, 2% glucose, 0.2% asparagine, 40 μg/mL methionine, 4 μg/mL myo-inositol, 0.4 μg/mL biotin, 2 μg/mL thiamine-HCl, and 0.4 μg/mL pyridoxine-HCl.
as §2

[7] = system: C. albicans strain Sc5314; format: cell-based, Candida albicans; settings: C. albicans Sc5314, LSM medium, 30°C, 24 hours of treatment, peptide 2.5 to 100 μg/mL, microscopy and absorbance at 600 nm; mean (±spread)
Procedure: as §3, §2

[8] = system: C. albicans WO-1 cells; test: Localization of FITC-labeled peptides (confocal microscopy); format: cell-based, Candida albicans; settings: 5 μg/mL (sublethal), 3 hours at 30°C in LSM
Procedure: C. albicans WO-1 cells were labeled with 5 μg/mL of the FM4-64 membrane stain (Life Technologies) and 0.5 μg/mL of the DNA stain 4′,6-diamidino-2-phenylindole (DAPI, Sigma) for 15 minutes after 2 hours of peptide treatment. Images were captured with an Axio Observer Z.1 (Zeiss) fluorescent microscope. For studying the interaction of peptides with the fungus, an overnight C. albicans WO-1 culture was diluted in LSM and treated with FITC-conjugated peptides (at the sublethal concentration of 5 μg/mL) for 3 hours at 30°C. Cells were then centrifuged for 4 minutes at 600 rpm and the unbound peptides were removed by gentle pipetting of the supernatant and cells were resuspended in LSM. The cell suspension was dropped onto a coverslip and images were taken with an Olympus FluoView FV1000 confocal laser-scanning microscope.

| Compound | Prevention of C. albicans induced epithelial cell death [1] | Calcein (dye) efflux [2] | Concentration that provoked cell death / toxicity [3] [µg/mL] | Anticandidal activity against the yeast form of growing C. albicans [4] | Minimal fungicidal concentration, 3 h [5] | Minimal fungicidal concentration, 24 h [5] | Minimal inhibitory concentration, WO-1 [6] | Minimal inhibitory concentration, Sc5314 [7] | Localization of FITC-labeled peptide in C. albicans cells [8] |
| --- | --- | --- | --- | --- | --- | --- | --- | --- | --- |
| CSCC[C@H](NC(=O)[C@H](CCCCN)NC(=O)[C@H](CCCNC(=N)N)NC(=O)[C@@H]1CCCN1C(=O)[C@H](CS)NC(=O)[C@H](Cc1c[nH]cn1)NC(=O)CNC(=O)[C@@H](NC(=O)[C@H](Cc1c[nH]cn1)NC(=O)[C@H](CCCCN)NC(=O)[C@H](CS)NC(=O)CNC(=O)[C@H](CC(N)=O)NC(=O)[C@H](CCCCN)NC(=O)[C@@H](N)CCSC)[C@@H](C)O)C(=O)N[C@@H](CS)C(=O)NCC(=O)N[C@@H](C)C(=O)N[C@@H](CCCCN)C(=O)N[C@H](C(=O)N[C@H](C(=O)N[C@@H](CCCCN)C(=O)N[C@@H](CS)C(=O)N[C@@H](CCCNC(=N)N)C(=O)N[C@@H](CC(N)=O)C(=O)N[C@@H](CC(N)=O)C(=O)N[C@@H](CCCCN)C(=O)N[C@@H](CS)C(=O)N[C@@H](CCC(N)=O)C(=O)N[C@@H](CS)C(=O)N[C@H](C(=O)N[C@@H](CCC(N)=O)C(=O)N[C@@H](CC(C)C)C(=O)O)C(C)C)[C@@H](C)O)[C@@H](C)O [NCR192] (H-MKNGCKHTGHCPRKMCGAKTTKCRNNKCQCVQL-OH; N-terminus and C-terminus assumed) | could be prevented | 22.82 ± 11.16% | 100 | exhibited anticandidal activity |  |  |  |  |  |
| CC[C@H](C)[C@H](NC(=O)[C@H](CS)NC(=O)CNC(=O)[C@H](CC(N)=O)NC(=O)[C@@H](N)CCCNC(=N)N)C(=O)N[C@H](C(=O)N[C@@H](CC(=O)O)C(=O)N1CCC[C@H]1C(=O)N[C@@H](CCCNC(=N)N)C(=O)N[C@@H](CS)C(=O)N1CCC[C@H]1C(=O)N[C@@H](Cc1ccc(O)cc1)C(=O)N[C@@H](CCC(N)=O)C(=O)N[C@@H](CCC(N)=O)C(=O)N[C@@H](CS)C(=O)N[C@@H](CCCNC(=N)N)C(=O)N[C@@H](CCCNC(=N)N)C(=O)N1CCC[C@H]1C(=O)N[C@@H](CC(C)C)C(=O)N[C@@H](Cc1ccc(O)cc1)C(=O)N[C@@H](CS)C(=O)N[C@@H](CCCNC(=N)N)C(=O)N[C@@H](CCCNC(=N)N)C(=O)N[C@@H](CCCNC(=N)N)C(=O)O)C(C)C [NCR247] (H-RNGCIVDPRCPYQQCRRPLYCRRR-OH; N-terminus and C-terminus assumed) | could be prevented | 29.65 ± 12.6% | 100 | exhibited anticandidal activity | 14 (±10) μg/mL | 16.5 (±13) μg/mL | 14 (±9) μg/mL | 25 (±2) μg/mL |  |
| EDIGHIKYCGIVDDCYKSKKPLFKIWKCVENVCVLWYK [NCR169] | unable to prevent vaginal epithelial cell death | no calcein release | 100 |  |  |  |  |  |  |
| RLNTTFRPLNFKMLRFWGQNRNIMKHRGQKVHFSLILSDCKTNKDCPKLRRANVRCRKSYCVPI [NCR335, cationic chemically synthesized mature NCR peptide of Medicago truncatula] | could be prevented | 43.12 ± 13.05% | > 25 | exhibited anticandidal activity | 7 (±1) μg/mL | 8 (±2) μg/mL | 11 (±1) μg/mL | 12.5 (±2.5) μg/mL |  |
| SFLGTFISSCKRDKDCPKLYGANFRCRKGTCVPPI [NCR035, chemically synthesized mature nodule-specific cysteine-rich (NCR) peptide of Medicago truncatula] |  |  |  |  |  |  |  |  | did not label the C. albicans cells |
| VNDCIRIHCKDDFDCIENRLQVGCRLQREKPRCVNLVCRCLRR [NCR055, chemically synthesized mature nodule-specific cysteine-rich (NCR) peptide of Medicago truncatula] |  |  |  |  |  |  | 50 (±4) μg/mL | 50 (±3) μg/mL |  |
